In experiment [1] the test system is nitric oxide production in RAW267.7 macrophages. Put plainly: Inhibition of nitric oxide production in LPS-activated macrophages (Griess reaction). Conditions: for inhibition at 12.5 µM / % inhibition of NO production: 12.5 μmol/L; for inhibition at 3.125 µM: 3.125 μmol/L; for inhibition at 3.13 µM: 3.13 μmol/L. Format: cell-based, murine. On the procedure:
(§1) The anti-inflammatory effects combinations of OH-tyrosol or oleuropein and representatives of other groups of natural substances (isoflavones, catechins, phtalides, hydroxylated biphenyls) were evaluated in activated macrophages by determining the inhibition of the synthesis of nitric oxide and/or pro-inflammatory prostaglandins (PG). PGE2 plays a critical role in the inflammation process, while nitric oxide (NO) is a hallmark of inflammation in various chronic inflammatory diseases including various forms of arthritis, gastro-intestinal diseases and metabolic syndrome.
(§2) The anti inflammatory effect of compounds was tested in cellular assays using a murine macrophage indicator cell line, RAW267.7, which was purchased from American Type Culture Collection, (ATCC) and cultured in DMEM according to the protocol provided by ATCC. Cells (˜50,000/well) were seeded into flat-bottomed microtiter plates and cultured for one day. Cells were then starved in complete medium containing 0.25% FCS (D-025). After overnight culture, medium was removed and replaced by 100 μL of D-025 containing the test compounds at twice the final concentration. Subsequently, 100 μL of D-025 containing 2 μg/ml LPS was added (i.e. final LPS concentration of 1 μg/ml) and the cells cultured for 24 hours. Substances were usually tested in a concentration range from 0.2 to 50 μM (or μg/ml in the case of extracts) in two-fold dilution steps. Concentrations of nitrite which was generated from nitric oxide released by cells were determined by the Griess reaction using sodium nitrite as standard (see e.g Imai et al. Biochem Biophys Res Comm, 197, 105 [1993]). Briefly, 50 μl of supernatant was mixed with Griess reagent 1 (25 μL) and Griess reagent 2 (25 μL), centrifuged and the optical density at 540 nm determined. PGE2 secreted into the cell culture medium was determined by EIA obtained from Cayman Chemicals ([…]) and used according to the manufacturer's instructions. IC50 values were calculated using a […] least-square fitting equation [y=A+((B−A)/(1+((C−x)^D))] for best-fit curves (Excel fit software program).
(§3) In a methodological approach that was similar to that described for Example 1, the synergistic effect of lycopene, resveratrol and OH-tyrosol was tested on the inflammatory response. Dose-dependent effects of each substance on the production of nitric oxide or PGE2 in macrophages were determined.
(The Griess reaction detects nitrite, a stable product of nitric oxide.)

Experiment [2] relates to PGE2 production in RAW267.7 macrophages. Put plainly: Inhibition of PGE2 production in LPS-activated macrophages (EIA). Format: cell-based, murine. On the procedure:
as §1, §2, §3

Setting [3] is: Mus musculus, Macrophage, single substance, RAW267.7, LPS 1 μg/ml, 24 hours, read-out: IC50 Nitric Oxide.
The mark [4] stands for this setting: Mus musculus, Macrophage, single substance, RAW267.7, LPS 1 μg/ml, 24 hours, read-out: IC50 PGE2.
[5] abbreviates: Mus musculus, Macrophage, read-out: % inhibition of NO production.
[6] abbreviates: Mus musculus, Macrophage, Example 2, read-out: IC50 of pure compound (NO production).
Where [7] appears, read: Mus musculus, Macrophage, Example 2, read-out: IC50 of pure compound (PGE2 production).
Setting [8] is: Mus musculus, Macrophage, Example 2, read-out: % inhibition of NO production.

The values below come from patent publication US8841264B2, “Compositions” (DSM IP Assets B.V., priority 2006, dated 2014).

Where two headings read alike, the source gives them in different places.

In the case of `O=c1c(-c2ccc(O)cc2)coc2cc(O)cc(O)c12` [Genistein, 4′,5,7-trihydroxyisoflavone], the inhibition at 25 µM in experiment [1] (Mus musculus, Macrophage, 25 μmol/L, read-out: % inhibition of NO production) was determined as 40%. Further, the IC50 in experiment [1] (setting [3]) was found to be 37 ± 2 µM; in experiment [2] (setting [4]), 4.6 ± 0.6 µM.
As to `C=CCc1ccc(O)c(-c2ccc(O)c(CC=C)c2)c1` [Honokiol, 3′,5-Diallyl-2,4′-biphenyldiol], the inhibition at 12.5 µM in experiment [1] (setting [5]) was determined as 66%. Moreover, the IC50 in experiment [1] (setting [3]) is 8 ± 1 µM; in experiment [2] (setting [4]), 1 ± 0.2 µM.
Consider `CCC/C=C1\OC(=O)C2=C1CCC=C2` [Ligustilide, ligustilide], for which, in experiment [1] (setting [5]), the inhibition at 3.125 µM amounted to 28% and the inhibition at 12.5 µM turned out to be 38%. Moreover, in experiment [1] (setting [3]), the IC50 was determined as 15 ± 1 µM. Moreover, the half-inhibitory concentration (IC50) in experiment [2] (setting [4]) is 10 ± 2 µM.
For `CC(C)=CCC/C(C)=C/C=C/C(C)=C/C=C/C(C)=C/C=C/C=C(C)/C=C/C=C(C)/C=C/C=C(\C)CCC=C(C)C` [Lycopene (Ly), ψ,ψ carotene], the inhibition at 0.5 µM in experiment [1] (Mus musculus, Macrophage, Example 2, 0.5 μmol/L, read-out: % inhibition of NO production) was determined as 4%. The IC50 in experiment [1] (setting [6]) and in experiment [2] (setting [7]) was above 8 µM throughout. In addition, the “anti-inflammatory effect (production of nitric oxide or PGE2 in macrophages)” value in experiment [1] (at <8 μmol/L) is recorded as “no anti-inflammatory effect”. Moreover, in experiment [2] (Mus musculus, Macrophage, Example 2, 0.25 μmol/L), the inhibition at 0.25 µM is -5%.
For the compound `OCCc1ccc(O)c(O)c1` [OH-Tyrosol, 2-(3,4-dihydroxyphenyl)-ethanol], the “% inhibition of NO production” value in experiment [1] was found to be 33%. Moreover, the inhibition at 6.25 µM in experiment [1] (Mus musculus, Macrophage, 6.25 μmol/L, read-out: % inhibition of NO production) worked out at 7%. In experiment [1] (setting [8]), the inhibition at 3.13 µM is -4%. The 50% inhibitory concentration (IC50) in experiment [1] (setting [6]) stood at 24.1 µM; in experiment [1] (setting [3]) it was 28 ± 2 µM; in experiment [2] (setting [7]), 22.7 µM; in experiment [2] (setting [4]), 24 ± 3 µM.
Take `C/C=C1/[C@H](O[C@@H]2O[C@H](CO)[C@@H](O)[C@H](O)[C@H]2O)OC=C(C(=O)OC)[C@H]1CC(=O)OCCc1ccc(O)c(O)c1` [Oleuropein, oleuropein]: in experiment [1] (setting [5]), the inhibition at 3.125 µM was found to be 2% and the inhibition at 12.5 µM is 8%. Also, in experiment [1] (setting [3]), the IC50 worked out at 52 ± 5 µM. For the same compound, the IC50 in experiment [2] (setting [4]) came to 60 ± 10 µM.
For `Oc1ccc(/C=C/c2cc(O)cc(O)c2)cc1` [Resveratrol, (trans)-resveratrol], the inhibition at 3.13 µM in experiment [1] (setting [8]) is -2%. In addition, the IC50 amounted to 19.3 µM in experiment [1] (setting [6]), 31 ± 2 µM in experiment [1] (setting [3]), 23.4 µM in experiment [2] (setting [7]) and 24 ± 2 µM in experiment [2] (setting [4]).
(−)-epigallocatechin gallate [EGCG]: the “% inhibition of NO production” value in experiment [1] was determined as 12%. Further, the half-inhibitory concentration (IC50) in experiment [1] (single substance, RAW267.7, LPS 1 μg/ml, 24 hours, read-out: IC50 Nitric Oxide) came out at 33 ± 2 µM; in experiment [2] (single substance, RAW267.7, LPS 1 μg/ml, 24 hours, read-out: IC50 PGE2), 35 ± 3 µM.

Broadly, the inhibition is the change of the read-out against control, counted positive when it falls. For orientation: IC50 means the point on the concentration scale where inhibition reaches its midpoint.
